# Values quoted from earlier work, collected in patent US20150314047A1, “BORON COMPOSITE SURFACE COATINGS AND THEIR APPLICATION ON IMPLANTABLE DEVICES TO ACCELERATE OSSEOUS HEALING” (Rutgers, The State University of New Jersey, priority 2014, published 2015).
# Where two headings read alike, the source gives them in different places.
# Legend:
# [1] = test system: human origin cultured cells
# axial skeleton = conditions: boron administered at several concentrations
# pre-osteoblastic cells = conditions: 0.1, 1, 10, and 100 ng/mL boron concentrations
molecule,measurement,setting,value
[Co] [cobalt],Effect on cell survival,[1]; even at reasonably high concentrations,negatively affected cell survival
[B] [boron],Higher resistance to vertebral crushing force,axial skeleton,10%
same,"Bone Morphogenic Proteins (BMPs)-4, -6, and -7",pre-osteoblastic cells,increases
cubic boron nitride,Effect on cell survival,[1],did not affect cell survival
